In patent US9023789B2, “Amylin analogs and pharmaceutical compositions thereof” (Novo Nordisk A/S, priority 2012, dated 2015):
Like-named read-outs stand apart in the source and are kept apart here. Numbered stars: 1 amine (or outer) side, 2 acyl side, 3 side chain; on linkers, the order of the positions; unused ones are H or OH. Bridge positions count the residues as written; N and C are the ends. Side chains are listed from the residue outwards. Peptide text beside a SMILES is read from it. * marks the point of attachment. C20 diacid = O=C(O)CCCCCCCCCCCCCCCCCCC(=O)*; γGlu = O=C(O)[C@H](CCC(=O)[*:2])N[*:1]; AEEA = NCCOCCOCC(=O)O

Experiments:
[1] = molecular target: T1, rat amylin receptor (rat calcitonin receptor + rat RAMP 3) (Rattus norvegicus, UniProt P32214+Q9JJ73); experiment: ASSAY (VI) binding to the rat amylin receptor
T1 construct: expressed in transfected cells; host or cells: BHK tk'ts 13 (transient, FuGENE 6), membranes
T1 sequence (P32214 25-479 isoform P32214-2 limits assumed): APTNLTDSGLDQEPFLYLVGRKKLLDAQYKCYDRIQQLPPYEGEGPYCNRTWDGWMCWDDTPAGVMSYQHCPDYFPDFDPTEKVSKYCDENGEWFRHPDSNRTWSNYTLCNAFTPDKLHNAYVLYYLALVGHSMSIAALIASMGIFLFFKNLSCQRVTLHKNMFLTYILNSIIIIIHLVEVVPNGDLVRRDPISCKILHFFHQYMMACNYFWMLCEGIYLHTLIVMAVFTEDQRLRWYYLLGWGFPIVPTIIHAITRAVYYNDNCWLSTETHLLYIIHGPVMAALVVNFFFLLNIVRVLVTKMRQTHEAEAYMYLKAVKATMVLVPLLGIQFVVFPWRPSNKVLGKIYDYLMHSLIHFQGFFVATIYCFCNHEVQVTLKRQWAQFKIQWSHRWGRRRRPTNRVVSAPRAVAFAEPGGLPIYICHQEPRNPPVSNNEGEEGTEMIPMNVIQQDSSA
T1 sequence (Q9JJ73 23-147 partner): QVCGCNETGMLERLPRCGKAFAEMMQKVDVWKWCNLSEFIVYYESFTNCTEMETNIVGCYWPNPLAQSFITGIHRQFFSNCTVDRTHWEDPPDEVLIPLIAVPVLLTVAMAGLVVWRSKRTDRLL
Outline: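 Membranes for this rat amylin receptor binding assay came from BHK tk′ts 13 cells. The cells were transiently transfected with rat calcitonin receptor using the FuGENE® 6 reagent from Roche, as the manufacturer recommends. The cells were collected approximately 48 hours after transfection, and membranes were then prepared.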

[2] = ASSAY (III) ThT fibrillation assay for physical stability; type: physicochemical
Outline: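 Physical stability scored by ThT fluorescence (444 nm excitation, 485 nm emission) tracked every 20 min during 37 °C incubation with 960 rpm shaking, ThT at 1 μM final. Values are replicate means with SD at chosen times; HPLC against pramlintide standard gives initial and post-assay soluble concentrations.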

[3] = Table 7, binding to rat amylin receptor, read-out: rAmylin-R bind IC50
[4] = Table 7, rat binding selectivity, rCTR IC50 / rAmylin-R IC50
[5] = Table 7a (preferred compounds), rat binding selectivity, rCTR IC50 / rAmylin-R IC50
[6] = ratio of rCTR bind IC50 to rAmylin-R bind IC50

Row | SMILES | IC50 [1, 3] [nM] | Ratio rCT/rAmylin binding [1, 4] | Ratio rCT/rAmylin binding [1, 5] | Ratio rCT/rAmylin binding [1, 6] | ThT pH 4.0 lag time (h) [2] [h] | IC50 [1] [nM]
1 | CC[C@H](C)[C@H](NC(=O)[C@H](C)NC(=O)CNC(=O)[C@H](Cc1ccccc1)NC(=O)[C@H](CC(N)=O)NC(=O)[C@@H]1CCCN1C(=O)[C@H](CO)NC(=O)[C@H](CO)NC(=O)[C@H](Cc1c[nH]cn1)NC(=O)[C@H](CCCNC(=N)N)NC(=O)[C@H](CC(C)C)NC(=O)[C@H](Cc1ccccc1)NC(=O)[C@H](Cc1c[nH]cn1)NC(=O)[C@H](C)NC(=O)[C@H](CC(C)C)NC(=O)[C@H](CCCNC(=N)N)NC(=O)[C@H](CCC(N)=O)NC(=O)[C@@H](NC(=O)[C@H](C)NC(=O)[C@@H]1CSSC[C@H](NC(=O)[C@@H](N)CCCCNC(=O)COCCOCCNC(=O)CC[C@H](NC(=O)CCCCCCCCCCCCCCCCCCC(=O)O)C(=O)O)C(=O)N[C@@H](CC(N)=O)C(=O)N[C@@H]([C@@H](C)O)C(=O)N[C@@H](C)C(=O)N[C@@H]([C@@H](C)O)C(=O)N1)[C@@H](C)O)C(=O)N1CCC[C@H]1C(=O)N[C@@H](CO)C(=O)N[C@@H](CO)C(=O)N[C@H](C(=O)N[C@@H](CC(N)=O)C(=O)N[C@H](C(=O)NCC(=O)N1CCC[C@H]1C(=O)N[C@@H](CC(N)=O)C(=O)N[C@H](C(=O)N[C@@H](Cc1ccc(O)cc1)C(N)=O)[C@@H](C)O)C(C)C)[C@@H](C)O [Example 68] (H-K([AEEA-γGlu-C20 diacid])CNTATCATQRLAHFLRHSSPNFGAIPSSTNVGPNTY-NH2; disulfide 2-7) | 0.234 | 121.9 | 121.9 | 121.9 | 24 | –
2 | CC[C@H](C)[C@H](NC(=O)[C@H](C)NC(=O)CNC(=O)[C@H](Cc1ccccc1)NC(=O)[C@H](CC(N)=O)NC(=O)[C@@H]1CCCN1C(=O)[C@H](CO)NC(=O)[C@H](CO)NC(=O)[C@H](Cc1c[nH]cn1)NC(=O)[C@H](CCCNC(=N)N)NC(=O)[C@H](CC(C)C)NC(=O)[C@H](Cc1ccccc1)NC(=O)[C@H](CCCCN)NC(=O)[C@H](C)NC(=O)[C@H](CC(C)C)NC(=O)[C@H](CCCNC(=N)N)NC(=O)[C@H](CCC(N)=O)NC(=O)[C@@H](NC(=O)[C@H](C)NC(=O)[C@@H]1CSSC[C@H](NC(=O)[C@@H](N)CCCCNC(=O)COCCOCCNC(=O)CC[C@H](NC(=O)CCCCCCCCCCCCCCCCCCC(=O)O)C(=O)O)C(=O)N[C@@H](CC(N)=O)C(=O)N[C@@H]([C@@H](C)O)C(=O)N[C@@H](C)C(=O)N[C@@H]([C@@H](C)O)C(=O)N1)[C@@H](C)O)C(=O)N1CCC[C@H]1C(=O)N[C@@H](CO)C(=O)N[C@@H](CO)C(=O)N[C@H](C(=O)N1CCC[C@H]1C(=O)N[C@H](C(=O)NCC(=O)N[C@@H](CO)C(=O)N[C@@H](CC(N)=O)C(=O)N[C@H](C(=O)N[C@@H](Cc1ccc(O)cc1)C(N)=O)[C@@H](C)O)C(C)C)[C@@H](C)O [Example 74] (H-K([AEEA-γGlu-C20 diacid])CNTATCATQRLAKFLRHSSPNFGAIPSSTPVGSNTY-NH2; disulfide 2-7; N-terminus assumed) | – | 22.3 | 22.3 | 22.3 | 45 | 4.89
3 | CC[C@H](C)[C@H](NC(=O)[C@H](C)NC(=O)CNC(=O)[C@H](Cc1ccccc1)NC(=O)[C@H](CC(N)=O)NC(=O)[C@@H]1CCCN1C(=O)[C@H](CO)NC(=O)[C@H](CO)NC(=O)[C@H](Cc1c[nH]cn1)NC(=O)[C@H](CCCNC(=N)N)NC(=O)[C@H](CC(C)C)NC(=O)[C@H](Cc1ccccc1)NC(=O)[C@H](CC(N)=O)NC(=O)[C@H](C)NC(=O)[C@H](CC(C)C)NC(=O)[C@H](CCCNC(=N)N)NC(=O)[C@H](CCC(N)=O)NC(=O)[C@@H](NC(=O)[C@H](C)NC(=O)[C@@H]1CSSC[C@H](NC(=O)[C@@H](N)CCCCNC(=O)COCCOCCNC(=O)CC[C@H](NC(=O)CCCCCCCCCCCCCCCCCCC(=O)O)C(=O)O)C(=O)N[C@@H](CC(N)=O)C(=O)N[C@@H]([C@@H](C)O)C(=O)N[C@@H](C)C(=O)N[C@@H]([C@@H](C)O)C(=O)N1)[C@@H](C)O)C(=O)N1CCC[C@H]1C(=O)N[C@@H](CO)C(=O)N[C@@H](CO)C(=O)N[C@H](C(=O)N[C@@H](CC(N)=O)C(=O)N[C@H](C(=O)NCC(=O)N[C@@H](Cc1c[nH]cn1)C(=O)N[C@@H](CC(N)=O)C(=O)N[C@H](C(=O)N[C@@H](Cc1ccc(O)cc1)C(N)=O)[C@@H](C)O)C(C)C)[C@@H](C)O [Example 76] (H-K([AEEA-γGlu-C20 diacid])CNTATCATQRLANFLRHSSPNFGAIPSSTNVGHNTY-NH2; disulfide 2-7; N-terminus assumed) | 0.686 | 56.8 | 56.8 | 56.8 | 22 | –
4 | CC[C@H](C)[C@H](NC(=O)[C@H](C)NC(=O)CNC(=O)[C@H](Cc1ccccc1)NC(=O)[C@H](CC(N)=O)NC(=O)[C@@H]1CCCN1C(=O)[C@H](CO)NC(=O)[C@H](CO)NC(=O)[C@H](Cc1c[nH]cn1)NC(=O)[C@H](CCCNC(=N)N)NC(=O)[C@H](CC(C)C)NC(=O)[C@H](Cc1ccccc1)NC(=O)[C@H](CC(N)=O)NC(=O)[C@H](C)NC(=O)[C@H](CC(C)C)NC(=O)[C@H](CCCNC(=N)N)NC(=O)[C@H](CCC(N)=O)NC(=O)[C@@H](NC(=O)[C@H](C)NC(=O)[C@@H]1CSSC[C@H](NC(=O)[C@@H](N)CCCCNC(=O)CC[C@H](NC(=O)CCCCCCCCCCCCCCCCCCC(=O)O)C(=O)O)C(=O)N[C@@H](CC(N)=O)C(=O)N[C@@H]([C@@H](C)O)C(=O)N[C@@H](C)C(=O)N[C@@H]([C@@H](C)O)C(=O)N1)[C@@H](C)O)C(=O)N1CCC[C@H]1C(=O)N[C@@H](CO)C(=O)N[C@@H](CO)C(=O)N[C@H](C(=O)N[C@@H](CC(N)=O)C(=O)N[C@H](C(=O)NCC(=O)N[C@@H](Cc1c[nH]cn1)C(=O)N[C@@H](CC(N)=O)C(=O)N[C@H](C(=O)N[C@@H](Cc1ccc(O)cc1)C(N)=O)[C@@H](C)O)C(C)C)[C@@H](C)O [Example 77] | 1.5 | 136.8 | 136.8 | 136.8 | 21 | –
5 | CC[C@H](C)[C@H](NC(=O)[C@H](C)NC(=O)CNC(=O)[C@H](Cc1ccccc1)NC(=O)[C@H](CC(N)=O)NC(=O)[C@@H]1CCCN1C(=O)[C@H](CO)NC(=O)[C@H](CO)NC(=O)[C@H](Cc1c[nH]cn1)NC(=O)[C@H](CCCNC(=N)N)NC(=O)[C@H](CC(C)C)NC(=O)[C@H](Cc1ccccc1)NC(=O)[C@H](Cc1c[nH]cn1)NC(=O)[C@H](C)NC(=O)[C@H](CC(C)C)NC(=O)[C@H](CCCNC(=N)N)NC(=O)[C@H](CCC(N)=O)NC(=O)[C@@H](NC(=O)[C@H](C)NC(=O)[C@@H]1CSSC[C@H](NC(=O)[C@@H](N)CCCCNC(=O)COCCOCCNC(=O)CC[C@H](NC(=O)CCCCCCCCCCCCCCCCCCC(=O)O)C(=O)O)C(=O)N[C@@H](CC(N)=O)C(=O)N[C@@H]([C@@H](C)O)C(=O)N[C@@H](C)C(=O)N[C@@H]([C@@H](C)O)C(=O)N1)[C@@H](C)O)C(=O)N1CCC[C@H]1C(=O)N[C@@H](CO)C(=O)N[C@@H](CO)C(=O)N[C@H](C(=O)N[C@@H](CC(N)=O)C(=O)N[C@H](C(=O)NCC(=O)N[C@@H](Cc1c[nH]cn1)C(=O)N[C@@H](CC(N)=O)C(=O)N[C@H](C(=O)N[C@@H](Cc1ccc(O)cc1)C(N)=O)[C@@H](C)O)C(C)C)[C@@H](C)O [Example 80] (H-K([AEEA-γGlu-C20 diacid])CNTATCATQRLAHFLRHSSPNFGAIPSSTNVGHNTY-NH2; disulfide 2-7; N-terminus assumed) | 1.67 | 36.2 | 36.2 | 36.2 | 28 | –
